Earlier results as cited in patent US7265128B2, “3-amino-4-phenylbutanoic acid derivatives as dipeptidyl peptidase inhibitors for the treatment or prevention of diabetes” (Merck & Co., Inc., priority 2003, dated 2007).

Experiments:
rats = details: survival doubled from day 7
mouse = details: cyclophosphamide-induced neutropenia
DP-IV = target: T1, DP-IV (Homo sapiens, UniProt P27487)
T1 construct: GRF is rapidly degraded in plasma to GRF[3-44]
T1 sequence (P27487 whole entry): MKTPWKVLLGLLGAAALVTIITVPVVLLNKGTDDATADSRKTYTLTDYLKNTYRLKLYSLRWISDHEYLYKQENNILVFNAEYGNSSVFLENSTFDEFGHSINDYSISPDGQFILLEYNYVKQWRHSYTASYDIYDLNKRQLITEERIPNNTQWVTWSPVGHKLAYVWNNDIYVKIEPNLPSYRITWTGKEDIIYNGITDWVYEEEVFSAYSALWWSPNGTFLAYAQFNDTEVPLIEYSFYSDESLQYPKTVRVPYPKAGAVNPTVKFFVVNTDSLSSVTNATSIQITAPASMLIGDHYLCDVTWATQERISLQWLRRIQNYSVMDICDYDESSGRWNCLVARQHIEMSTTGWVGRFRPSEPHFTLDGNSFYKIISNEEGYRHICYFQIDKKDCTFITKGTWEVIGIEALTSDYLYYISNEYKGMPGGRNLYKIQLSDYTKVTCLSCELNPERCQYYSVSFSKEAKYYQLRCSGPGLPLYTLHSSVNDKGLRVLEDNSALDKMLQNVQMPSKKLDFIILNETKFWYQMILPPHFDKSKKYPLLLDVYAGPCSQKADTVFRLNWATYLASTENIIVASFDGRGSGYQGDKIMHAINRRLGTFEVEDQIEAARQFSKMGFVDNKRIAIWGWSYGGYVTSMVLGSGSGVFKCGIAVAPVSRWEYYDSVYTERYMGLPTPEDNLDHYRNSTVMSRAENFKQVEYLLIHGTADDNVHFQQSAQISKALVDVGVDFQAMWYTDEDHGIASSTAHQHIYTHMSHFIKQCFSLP

For CC(C)N1CCC(c2ccccc2)(c2ccccc2)CC1 [Prodipine, Pro-Pro-diphenyl-phosphonate], the cardiac allograft survival (rats) is given as 14 day.

For CC(C)[C@H](N)C(=O)N1CCC[C@H]1B(O)O [Val-Boro-Pro], the hematopoiesis (mouse) is listed as “stimulated hematopoiesis”.

For diprotin A, the “degradation of GRF in plasma to GRF[3-44]” value (DP-IV) is listed as “prevented”.
